Series [1] concerns the target T1, Human AMPK α2β2γ1 (Homo sapiens, UniProt O43741+P54646).
T1 construct: The full length cDNAs of human AMPK β2 (NM_005399.3) and human AMPK α2 (NM_006252.3); The full length cDNAs of human AMPK β2 (NM_005399.3); the full length cDNA of human AMPK γ1 (NM_002733.3) had been inserted into pET28b(+); 6×His (N); made in house; host or cells: Escherichia coli BL21 CodonPlus (DE3)-RIL
The experiment in a line: Test Example 2: activation of phosphorylated human AMPK α2β2γ1 (mobility-shift kinase assay, FL-Peptide 7). Type of series: biochemical. The following applies: for EC150: compound concentration showing 150% relative to the control (100%), human AMPK α2β2γ1 phosphorylated with CaMKK2; for Emax: maximum rate of increase in activity within the measurement range, control = 100%, read-out: Emax. The method in brief: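 His-tagged α2β2γ1 expressed in E. coli was pre-phosphorylated by GST-CaMKKβ (25 °C, 1–1.5 h), then exposed to compound for 10 min (1% DMSO). Reaction: pH 7.0 HEPES, ATP and 1.5 μM FL-Peptide 7 (final), 2 h at 25 °C. Mobility-shift conversion gave % activity increase versus compound-free control.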

Series [2] is described as follows: BA test (oral absorption). Type of series: in vivo. Conditions: rat, plasma; rats; calculated from AUCs of oral and intravenous administration groups. As to the method: • (1) Animals: mice or rats • (2) Animal husbandry: Mice and rats had free access to solid food and sterilized bottled tap water. • (3) Setting of dose and group compositions: orally or intravenously administered at a predetermined dose Group compositions were as shown below. (Dose depends on the compound)
Oral: 1 to 30 mg/kg (n=2 to 3)
Intravenous: 0.5 to 10 mg/kg (n=2 to 3) • (4) Preparation of administration formulation: for oral administration, in a solution or a suspension state; for intravenous administration, in a solubilized state • (5) Dosing procedure: In oral administration study, the test substance was forcibly administered to the stomach by using a gavage tube. In intravenous administration study, the test substance was administered via tail vein using a syringe with a needle. • (6) Evaluation items: Blood was collected at each time point, and plasma concentration of the drug was determined by LC/MS/MS. • (7) Data analysis: Regarding the transition of the plasma concentration, area under the plasma concentration-time curve (AUC) was calculated by means of WinNonlin® program, respectively. Bioavailability (BA) was calculated from AUCs of the oral administration group and intravenous administration group.

Series [3] relates to phosphorylation of endogenous acetyl-CoA carboxylase (ACC) in L6-GLUT4myc myoblasts. Description: Test Example 3: cell-based ELISA of ACC (Ser79) phosphorylation for AMPK activation in L6-GLUT4myc myoblasts. Conditions: for EC (150% of control): concentration causing 150% relative to vehicle control (100%), 3 hours, phospho-ACC; for Emax: maximum response within varying concentrations, vehicle control = 100%. As to the method:
Cell-based assay for AMPK activation potency of compounds was performed with L6-GLUT4myc myoblasts (J. Biol. Chem. 278:17953-62, 2003) in a 96-well or 384-well plate by detecting the phosphorylation of endogenous acetyl-CoA carboxylase (ACC) using cell-based ELISA method. The cells were seeded in a 96-well plate at a density of 2×10^4 cells per well or in a 384-well plate at a density of 3.5×10^3 cells per well in minimum essential media (α-MEM) supplemented with 10% fetal bovine serum, 100 U/mL penicillin, 100 μg/mL streptomycin, 2 μg/mL blasticidin S hydrochloride and 0.5 mg/mL G418 disulfate, and maintained in a humidified atmosphere of 95% air and 5% CO2 at 37° C. for 24 hours. Following the overnight culture with an assay buffer consisting of 0.1% bovine serum albumin (BSA), 100 U/mL penicillin and 100 μg/mL streptomycin, cells were treated with varying concentrations of compounds or vehicle (dimethyl sulfoxide at a final concentration of 0.33%) in the presence of 0.1% BSA or 4% BSA for 3 hours at room temperature. After fixing cells with ice-cold 4% formaldehyde in Tris-buffered saline (TBS) for 30 min, the fixed cells were rinsed with TBS containing 0.1% or 0.01% Triton X-100 (TBS-T) and quenched with 0.6% hydrogen peroxide in TBS-T, and blocked with a blocking reagent (Blocking One P manufactured by Nacalai Tesque). Then, anti-phospho-ACC (Ser79) antibody as the primary antibody (manufactured by Cell Signaling Technology) diluted with TBS-T containing 5% Blocking One P was added to each well and the plate was incubated overnight at 4° C. After rinsing each well with TBS-T, horseradish peroxidase (HRP)-conjugated anti-rabbit IgG as the secondary antibody diluted with TBS-T containing 5% Blocking One P was added to each well and the plate was incubated for 1 hour in 96-well plate or for 5 hours in 384-well plate at room temperature. Each well of the plate was rinsed with TBS-T and added a chemiluminescent reagent (ImmunoStar® LD manufactured by Wako Pure Chemical Industries) for detection of HRP conjugates. Ten minutes later, the luminescence intensity was measured using luminometer (ViewLux or ARVO manufactured by PerkinElmer). The luminescence in the presence of compound was calculated as the rate of change relative to vehicle control, which is in the absence of compound.
In general terms: In an ELISA, binding on a coated surface is turned into a signal by an enzyme label.

Molecules are shown by their SMILES.

As a reminder, the Emax is the size of the effect at its maximum, as opposed to the concentration needed. One may read the bioavailability as dose-corrected exposure relative to a reference, in per cent.

T1 sequence (P54646 whole entry): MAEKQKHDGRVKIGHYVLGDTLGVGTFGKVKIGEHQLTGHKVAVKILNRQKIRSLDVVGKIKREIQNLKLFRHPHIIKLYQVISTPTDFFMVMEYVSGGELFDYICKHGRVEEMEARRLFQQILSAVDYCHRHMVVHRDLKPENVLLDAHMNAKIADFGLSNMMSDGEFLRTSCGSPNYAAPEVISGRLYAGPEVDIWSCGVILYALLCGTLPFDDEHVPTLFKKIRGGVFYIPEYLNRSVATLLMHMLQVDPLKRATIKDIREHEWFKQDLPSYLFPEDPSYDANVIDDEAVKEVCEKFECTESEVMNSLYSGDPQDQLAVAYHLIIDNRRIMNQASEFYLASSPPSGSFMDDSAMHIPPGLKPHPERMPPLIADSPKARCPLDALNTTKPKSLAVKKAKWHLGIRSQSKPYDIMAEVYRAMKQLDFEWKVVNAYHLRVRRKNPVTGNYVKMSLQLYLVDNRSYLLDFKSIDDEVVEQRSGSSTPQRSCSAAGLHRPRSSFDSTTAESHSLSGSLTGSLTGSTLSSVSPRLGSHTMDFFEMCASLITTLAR
T1 sequence (O43741 whole entry): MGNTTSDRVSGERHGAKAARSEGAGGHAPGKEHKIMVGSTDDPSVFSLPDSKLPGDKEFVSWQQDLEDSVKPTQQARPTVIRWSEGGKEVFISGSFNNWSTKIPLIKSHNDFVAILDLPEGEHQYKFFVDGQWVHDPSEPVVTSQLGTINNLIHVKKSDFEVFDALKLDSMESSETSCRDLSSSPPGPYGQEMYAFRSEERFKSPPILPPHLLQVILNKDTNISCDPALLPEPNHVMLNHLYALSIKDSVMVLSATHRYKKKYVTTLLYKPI
T1 sequence (P54619 whole entry partner): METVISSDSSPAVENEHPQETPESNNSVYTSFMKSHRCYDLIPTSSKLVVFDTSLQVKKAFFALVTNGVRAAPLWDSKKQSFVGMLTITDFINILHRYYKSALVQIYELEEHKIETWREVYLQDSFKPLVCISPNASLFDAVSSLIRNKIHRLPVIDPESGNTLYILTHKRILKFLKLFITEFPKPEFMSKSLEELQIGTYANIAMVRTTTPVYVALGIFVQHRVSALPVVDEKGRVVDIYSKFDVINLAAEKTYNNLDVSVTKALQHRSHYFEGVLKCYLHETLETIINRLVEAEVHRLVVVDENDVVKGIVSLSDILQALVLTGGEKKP

As for `COCCOc1ccc(-c2ccc(-c3nc4cc(O[C@@H]5CO[C@H]6[C@@H]5OC[C@H]6O)[nH]c4cc3F)cc2)cc1` [Compound I-1-66], in series [1], the EC150 worked out at 8.5 nM and the maximal effect (Emax) was determined as 333%. In series [2], the bioavailability is 38.8%. Moreover, in series [3], the EC (150% of control) was determined as 0.103 µM and the Emax turned out to be 635%.
Consider `CN1CCC(Oc2ccc(-c3ccc(-c4nc5cc(O[C@@H]6CO[C@H]7[C@@H]6OC[C@H]7O)[nH]c5cc4F)cc3)cc2)C1=O` (stereo partly shown) [Compound I-2-32], for which, in series [1], the EC150 came to 1.3 nM and the Emax worked out at 379%. The bioavailability in series [2] was 28.6%. For the same compound, in series [3], the EC (150% of control) came out at 0.086 µM and the Emax is 531%.
The like results for `CC(=O)N1CCC(Oc2ccc(-c3ccc(-c4nc5cc(O[C@@H]6CO[C@H]7[C@@H]6OC[C@H]7O)[nH]c5cc4F)cc3)cc2)C1` (stereo partly shown) [Compound I-1-27] were, in that order, 5.8 nM, 332%, 19.6%, 0.168 µM and 473%.
The like results for `O[C@@H]1CO[C@H]2[C@@H]1OC[C@H]2Oc1cc2nc(-c3ccc(-c4ccc(O[C@@H]5CCOC5)cc4)cc3)c(F)cc2[nH]1` [Compound I-2-84] were, in that order, 4.3 nM, 514%, 52.1%, 0.079 µM and 684%.
The like results for `C[S+]([O-])c1ccc(-c2ccc(-c3nc4cc(O[C@@H]5CO[C@H]6[C@@H]5OC[C@H]6O)[nH]c4cc3F)cc2)cc1` (stereo partly shown) [Compound I-1-64] were, in that order, 1.6 nM, 375%, 17.8%, 0.021 µM and 509%.
In the case of `COCCNc1ccc(-c2ccc(-c3nc4cc(O[C@@H]5CO[C@H]6[C@@H]5OC[C@H]6O)[nH]c4cc3F)cc2)cc1` [Compound I-2-31], in series [1], the EC150 was 6.8 nM and the Emax amounted to 478%. Moreover, the bioavailability in series [2] is 40.5%. In series [3], this compound gave an EC (150% of control) of 0.134 µM and a maximal response (Emax) of 656%.
The like results for `CC(C)(O)COc1ccc(-c2ccc(-c3nc4cc(O[C@@H]5CO[C@H]6[C@@H]5OC[C@H]6O)[nH]c4cc3F)cc2)cc1` [Compound I-2-13] were, in that order, 3 nM, 652%, 59%, 0.16 µM and 650%.
Consider `O=C1NCCC1Oc1ccc(-c2ccc(-c3nc4cc(O[C@@H]5CO[C@H]6[C@@H]5OC[C@H]6O)[nH]c4cc3F)cc2)cc1` (stereo partly shown) [Compound I-1-70], for which the bioavailability in series [2] was 25.5%. In series [3], this compound registered an EC (150% of control) of 0.156 µM and an Emax of 512%.
As to `O[C@@H]1CO[C@H]2[C@@H]1OC[C@H]2Oc1cc2nc(-c3ccc([C@@H]4CCCC[C@@H]4O)cc3)c(F)cc2[nH]1` [Compound I-2-18], in series [1], the EC150 is 12 nM and the maximal response (Emax) is 618%. Further, the bioavailability in series [2] was 18.6%. In series [3], the EC (150% of control) was 0.164 µM and the Emax came to 612%.

The values above are taken from US10478425B2, “5-phenylazaindole derivative having AMPK-activating activity” (Shionogi & Co., Ltd., priority 2016, dated 2019).
